The text below walks through data of the supplement of paper PMC6775116.

The structures appear in SMILES notation.

Among the targets are KIAA1804 (UniProt Q5TCX8); LOC100128443; MARK1 (UniProt Q9P0L2); PDIK1L (UniProt Q8N165).
Experiment in all cases: IC50 for competition of kinobeads binding (-log10 M (pIC50))
A further assay deals with T1, MASTL (UniProt Q96GX5).
T1 sequence (whole entry): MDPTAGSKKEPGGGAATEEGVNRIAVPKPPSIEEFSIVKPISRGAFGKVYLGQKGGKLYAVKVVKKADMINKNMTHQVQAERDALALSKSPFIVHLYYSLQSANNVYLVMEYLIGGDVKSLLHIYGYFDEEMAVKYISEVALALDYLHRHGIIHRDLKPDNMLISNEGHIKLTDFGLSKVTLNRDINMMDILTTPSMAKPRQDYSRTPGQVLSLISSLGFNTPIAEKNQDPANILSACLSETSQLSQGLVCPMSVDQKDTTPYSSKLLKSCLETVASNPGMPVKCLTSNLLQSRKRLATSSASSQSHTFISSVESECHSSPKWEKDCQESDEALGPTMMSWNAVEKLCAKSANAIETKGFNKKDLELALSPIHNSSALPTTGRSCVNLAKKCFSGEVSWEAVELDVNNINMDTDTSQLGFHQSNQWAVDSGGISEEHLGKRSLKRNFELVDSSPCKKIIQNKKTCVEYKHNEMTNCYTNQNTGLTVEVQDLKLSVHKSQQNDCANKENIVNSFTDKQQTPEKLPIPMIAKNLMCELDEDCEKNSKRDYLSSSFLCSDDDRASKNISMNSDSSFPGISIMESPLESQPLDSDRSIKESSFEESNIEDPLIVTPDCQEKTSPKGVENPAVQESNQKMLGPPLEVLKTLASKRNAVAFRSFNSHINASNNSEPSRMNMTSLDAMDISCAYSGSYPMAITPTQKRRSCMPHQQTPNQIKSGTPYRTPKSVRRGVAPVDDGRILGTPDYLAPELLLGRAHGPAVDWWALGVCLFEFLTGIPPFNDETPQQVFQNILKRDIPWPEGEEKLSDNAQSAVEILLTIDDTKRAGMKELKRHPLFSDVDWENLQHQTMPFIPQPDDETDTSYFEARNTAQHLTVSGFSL

A further assay deals with CDC7 (UniProt O00311). The settings on record: assay format: miniaturized (250 µg protein).
Sequence of CDC7 (O00311 whole entry, looked up): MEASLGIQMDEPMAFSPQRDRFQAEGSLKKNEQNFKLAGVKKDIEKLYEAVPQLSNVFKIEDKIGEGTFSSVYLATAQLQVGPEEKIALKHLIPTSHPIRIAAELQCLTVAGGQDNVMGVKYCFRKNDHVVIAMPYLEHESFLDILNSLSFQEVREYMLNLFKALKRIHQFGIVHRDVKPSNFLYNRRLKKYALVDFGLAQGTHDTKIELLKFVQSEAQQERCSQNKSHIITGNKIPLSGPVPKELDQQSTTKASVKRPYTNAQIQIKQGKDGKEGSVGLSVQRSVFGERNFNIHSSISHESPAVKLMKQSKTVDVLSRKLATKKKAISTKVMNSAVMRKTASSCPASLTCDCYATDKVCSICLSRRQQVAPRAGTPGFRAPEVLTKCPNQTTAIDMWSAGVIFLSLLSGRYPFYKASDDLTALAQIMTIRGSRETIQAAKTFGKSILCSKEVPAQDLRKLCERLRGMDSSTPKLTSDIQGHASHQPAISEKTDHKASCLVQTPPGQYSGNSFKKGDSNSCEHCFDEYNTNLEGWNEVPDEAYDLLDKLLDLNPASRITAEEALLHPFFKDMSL
Another assay addresses T2, BCR (UniProt P11274).
T2 sequence (whole entry): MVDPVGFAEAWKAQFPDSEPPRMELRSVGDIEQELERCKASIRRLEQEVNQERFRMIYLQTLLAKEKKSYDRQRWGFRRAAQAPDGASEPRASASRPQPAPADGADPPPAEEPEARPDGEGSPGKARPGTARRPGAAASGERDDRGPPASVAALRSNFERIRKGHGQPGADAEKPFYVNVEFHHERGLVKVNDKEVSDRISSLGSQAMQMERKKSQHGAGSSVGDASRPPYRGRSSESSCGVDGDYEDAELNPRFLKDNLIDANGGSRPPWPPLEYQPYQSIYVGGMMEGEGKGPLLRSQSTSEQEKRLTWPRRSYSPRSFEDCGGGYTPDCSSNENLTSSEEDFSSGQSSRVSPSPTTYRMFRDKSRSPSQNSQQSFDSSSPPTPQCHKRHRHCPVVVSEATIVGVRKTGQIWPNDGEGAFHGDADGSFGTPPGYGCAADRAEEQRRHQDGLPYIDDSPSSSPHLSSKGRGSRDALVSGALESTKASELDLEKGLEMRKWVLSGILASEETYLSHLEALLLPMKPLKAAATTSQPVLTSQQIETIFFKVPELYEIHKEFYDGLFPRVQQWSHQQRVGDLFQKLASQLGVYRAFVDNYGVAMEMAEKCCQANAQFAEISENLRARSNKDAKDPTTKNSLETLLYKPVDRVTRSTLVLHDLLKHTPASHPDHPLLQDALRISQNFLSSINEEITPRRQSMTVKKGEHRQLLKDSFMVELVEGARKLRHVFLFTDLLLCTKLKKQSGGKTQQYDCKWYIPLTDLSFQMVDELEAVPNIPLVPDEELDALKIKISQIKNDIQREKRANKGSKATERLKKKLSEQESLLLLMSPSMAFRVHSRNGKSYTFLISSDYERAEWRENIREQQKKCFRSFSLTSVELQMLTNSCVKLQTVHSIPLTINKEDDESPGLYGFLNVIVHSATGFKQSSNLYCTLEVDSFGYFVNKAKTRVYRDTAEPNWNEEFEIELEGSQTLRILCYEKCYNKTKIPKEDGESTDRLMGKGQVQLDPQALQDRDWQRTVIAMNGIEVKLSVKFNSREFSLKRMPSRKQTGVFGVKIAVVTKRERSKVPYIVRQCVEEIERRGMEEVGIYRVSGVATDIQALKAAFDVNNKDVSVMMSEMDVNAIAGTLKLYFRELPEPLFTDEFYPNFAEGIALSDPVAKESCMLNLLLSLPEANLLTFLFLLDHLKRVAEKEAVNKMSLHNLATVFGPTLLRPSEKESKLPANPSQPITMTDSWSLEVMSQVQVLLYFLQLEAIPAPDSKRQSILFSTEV

Another assay deals with T3, PIP4K2A (UniProt P48426).
T3 sequence (whole entry): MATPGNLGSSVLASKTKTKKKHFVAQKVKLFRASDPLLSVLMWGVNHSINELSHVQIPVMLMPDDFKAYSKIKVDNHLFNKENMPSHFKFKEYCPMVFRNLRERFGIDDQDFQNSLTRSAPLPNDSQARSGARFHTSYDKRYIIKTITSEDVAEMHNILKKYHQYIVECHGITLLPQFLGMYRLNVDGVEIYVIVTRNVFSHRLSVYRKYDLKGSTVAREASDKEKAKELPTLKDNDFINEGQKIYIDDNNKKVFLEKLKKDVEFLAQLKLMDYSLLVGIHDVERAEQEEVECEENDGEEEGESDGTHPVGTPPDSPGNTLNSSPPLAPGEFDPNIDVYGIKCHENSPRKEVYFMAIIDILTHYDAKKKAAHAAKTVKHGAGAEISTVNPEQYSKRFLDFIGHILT

Where [1] appears, read: assay format: miniaturized (250 µg protein).
Setting [2] is: assay format: standard (5 mg protein).

Sequence of PDIK1L (Q8N165 whole entry): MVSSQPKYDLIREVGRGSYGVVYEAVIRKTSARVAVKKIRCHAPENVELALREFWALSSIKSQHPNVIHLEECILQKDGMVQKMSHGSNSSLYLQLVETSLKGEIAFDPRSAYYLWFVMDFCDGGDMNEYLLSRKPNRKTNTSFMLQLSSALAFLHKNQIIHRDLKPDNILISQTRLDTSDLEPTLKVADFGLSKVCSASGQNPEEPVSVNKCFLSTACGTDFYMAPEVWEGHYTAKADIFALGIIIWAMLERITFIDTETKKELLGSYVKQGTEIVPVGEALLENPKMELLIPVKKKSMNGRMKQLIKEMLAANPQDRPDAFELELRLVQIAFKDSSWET
Sequence of KIAA1804 (Q5TCX8 whole entry): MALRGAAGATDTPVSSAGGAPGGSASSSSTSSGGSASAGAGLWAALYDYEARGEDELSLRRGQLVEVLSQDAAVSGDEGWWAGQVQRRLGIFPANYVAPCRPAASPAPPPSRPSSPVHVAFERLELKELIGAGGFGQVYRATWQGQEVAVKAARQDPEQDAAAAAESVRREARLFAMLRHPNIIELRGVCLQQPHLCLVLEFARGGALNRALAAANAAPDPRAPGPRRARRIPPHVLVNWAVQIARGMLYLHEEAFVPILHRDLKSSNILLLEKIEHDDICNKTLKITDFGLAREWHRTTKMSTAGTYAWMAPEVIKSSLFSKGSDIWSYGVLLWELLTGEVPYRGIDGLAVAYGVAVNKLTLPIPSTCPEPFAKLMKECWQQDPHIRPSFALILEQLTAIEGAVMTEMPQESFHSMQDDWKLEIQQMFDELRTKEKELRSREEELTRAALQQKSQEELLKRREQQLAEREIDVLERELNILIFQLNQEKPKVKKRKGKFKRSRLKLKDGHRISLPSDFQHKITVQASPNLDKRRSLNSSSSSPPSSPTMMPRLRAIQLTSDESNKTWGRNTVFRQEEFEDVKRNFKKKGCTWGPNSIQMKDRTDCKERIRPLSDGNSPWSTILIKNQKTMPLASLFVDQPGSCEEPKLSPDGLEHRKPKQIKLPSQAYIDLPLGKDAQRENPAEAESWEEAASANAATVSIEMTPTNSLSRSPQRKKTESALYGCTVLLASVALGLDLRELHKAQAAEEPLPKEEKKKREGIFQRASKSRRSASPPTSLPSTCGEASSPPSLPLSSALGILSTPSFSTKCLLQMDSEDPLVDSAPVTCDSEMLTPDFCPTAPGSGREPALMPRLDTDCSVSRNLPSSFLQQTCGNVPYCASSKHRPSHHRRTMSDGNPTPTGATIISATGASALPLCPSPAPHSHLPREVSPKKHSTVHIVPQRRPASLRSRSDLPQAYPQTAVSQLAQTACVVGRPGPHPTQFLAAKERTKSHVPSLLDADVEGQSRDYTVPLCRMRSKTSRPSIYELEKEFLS
Sequence of MARK1 (Q9P0L2 whole entry, looked up): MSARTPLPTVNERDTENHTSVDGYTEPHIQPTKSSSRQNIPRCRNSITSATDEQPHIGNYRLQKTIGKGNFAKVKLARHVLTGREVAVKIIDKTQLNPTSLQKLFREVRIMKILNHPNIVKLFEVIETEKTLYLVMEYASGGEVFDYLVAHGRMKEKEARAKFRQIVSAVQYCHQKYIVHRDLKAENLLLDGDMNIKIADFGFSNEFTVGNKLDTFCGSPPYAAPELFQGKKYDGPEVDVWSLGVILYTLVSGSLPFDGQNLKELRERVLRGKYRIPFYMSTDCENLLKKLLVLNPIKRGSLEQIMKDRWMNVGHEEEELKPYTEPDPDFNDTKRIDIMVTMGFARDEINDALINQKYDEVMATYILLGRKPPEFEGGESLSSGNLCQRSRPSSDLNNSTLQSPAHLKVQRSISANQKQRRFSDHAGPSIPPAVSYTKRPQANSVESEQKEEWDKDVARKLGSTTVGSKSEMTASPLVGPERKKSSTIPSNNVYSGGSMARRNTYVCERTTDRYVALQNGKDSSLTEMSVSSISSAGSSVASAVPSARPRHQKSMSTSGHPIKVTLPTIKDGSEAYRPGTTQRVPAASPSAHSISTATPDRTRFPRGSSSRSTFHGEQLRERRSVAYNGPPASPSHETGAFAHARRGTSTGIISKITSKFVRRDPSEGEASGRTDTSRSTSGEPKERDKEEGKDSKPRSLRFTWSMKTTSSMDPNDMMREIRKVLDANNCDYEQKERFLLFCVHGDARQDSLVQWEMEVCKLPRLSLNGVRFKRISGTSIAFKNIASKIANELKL

As for `Cc1nc(Nc2ncc(C(=O)Nc3c(C)cccc3Cl)s2)cc(N2CCN(CCO)CC2)n1` [dasatinib], the “IC50 (-log10 M)” value at MASTL (setting [1]) is “inactive”; at MASTL (setting [2]), “inactive”; at CDC7, “inactive”; on BCR (setting [1]), 8.64; on BCR (setting [2]), 8.49; at PIP4K2A (setting [1]), “inactive”. Besides, the “IC50 (-log10 M)” value at PIP4K2A (setting [2]), at KIAA1804 (setting [1]), on KIAA1804 (setting [2]), at LOC100128443 (setting [1]), at LOC100128443 (setting [2]) and at MARK1 (setting [1]) was “inactive” each time. The “IC50 (-log10 M)” value on MARK1 (setting [2]) was “inactive”; at PDIK1L (setting [1]), 5.7; at PDIK1L (setting [2]) it was “inactive”.
